# Experimental data as given in patent publication US12570642B2, “GLP-IR modulating compounds” (Gilead Sciences, Inc., priority 2021, dated 2026).
# Biological target: GLP-1R (Homo sapiens, UniProt P43220)
# Assay: GLP-1R Activation - cAMP Assay
# Format: cell-based
# Conditions: cAMP increase in CHO cells stably expressing GLP-1R; each compound run on one of the two cAMP assays (Assay 1 or Assay 2, not specified)
# How it was run: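 cAMP rise read by HTRF after 30 min agonist exposure (10-point titration, 37 °C) in HBSS/20 mM Hepes/0.1% BSA, following 1 h pre-incubation. Cells: stable GLP-1R CHO line, 1,000/well, seeded overnight. Sigmoidal fit of response vs log concentration gives EC50.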
# Chain of GLP-1R (P43220 24-463): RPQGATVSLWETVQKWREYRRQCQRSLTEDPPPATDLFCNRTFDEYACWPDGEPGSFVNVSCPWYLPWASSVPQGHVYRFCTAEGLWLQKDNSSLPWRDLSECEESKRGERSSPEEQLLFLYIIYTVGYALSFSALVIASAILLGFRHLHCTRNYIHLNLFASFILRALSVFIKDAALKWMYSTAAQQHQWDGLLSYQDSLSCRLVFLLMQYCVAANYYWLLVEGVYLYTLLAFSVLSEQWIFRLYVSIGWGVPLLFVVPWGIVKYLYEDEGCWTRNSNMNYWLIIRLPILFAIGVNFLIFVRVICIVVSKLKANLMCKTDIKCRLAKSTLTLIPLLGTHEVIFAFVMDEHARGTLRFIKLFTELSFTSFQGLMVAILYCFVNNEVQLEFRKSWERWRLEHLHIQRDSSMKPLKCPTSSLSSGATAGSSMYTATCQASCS
row,Structure (SMILES),EC50 [nM]
1,"CCO[C@H]1COC[C@H]1n1c(Cc2cc(F)c(-c3cccc(OCc4ccc(Cl)cc4F)n3)cc2F)nc2ccc(C(=O)O)cc21 [Example 571, 2-(4-(6-((4-chloro-2-fluorobenzyl)oxy)pyridin-2-yl)-2,5-difluorobenzyl)-1-((3R,4R)-4-ethoxytetrahydrofuran-3-yl)-1H-benzo[d]imidazole-6-carboxylic acid]",1.27
2,"CO[C@]1(C)COC[C@@H]1n1c(Cc2cc(F)c(-c3cccc(OCc4ccc(Cl)cc4F)n3)cc2F)nc2ccc(C(=O)O)cc21 (single isomer, unassigned) [Example 473]",0.092
3,"O=C(O)c1ccc2nc(Cc3cc(F)c(-c4cccc(OCc5ccc(Cl)cc5F)n4)cc3F)n(C34COCC(C3)C4)c2c1 [Example 406, 1-(3-oxabicyclo[3.1.1]heptan-1-yl)-2-(4-(6-((4-chloro-2-fluorobenzyl)oxy)pyridin-2-yl)-2,5-difluorobenzyl)-1H-benzo[d]imidazole-6-carboxylic acid]",10.8
4,"CC1(C)COC[C@H]1n1c(Cc2c(F)cc(-c3ccc(F)c(OCc4ccc(F)cc4)n3)c(F)c2F)nc2ccc(C(=O)O)cc21 [Example 558, (S)-1-(4,4-dimethyltetrahydrofuran-3-yl)-2-(2,3,6-trifluoro-4-(5-fluoro-6-((4-fluorobenzyl)oxy)pyridin-2-yl)benzyl)-1H-benzo[d]imidazole-6-carboxylic acid]",0.132
5,"CC1(C)COC[C@H]1n1c(Cc2cc(F)c(-c3ccnc(OCc4ccc(-n5ccnn5)cc4)n3)cc2F)nc2ccc(C(=O)O)cc21 [Example 182, (S)-2-(4-(2-((4-(1H-1,2,3-triazol-1-yl)benzyl)oxy)pyrimidin-4-yl)-2,5-difluorobenzyl)-1-(4,4-dimethyltetrahydrofuran-3-yl)-1H-benzo[d]imidazole-6-carboxylic Acid]",0.178
6,"COC[C@H]1COC[C@H]1n1c(Cc2cc(F)c(-c3cccc(OCc4ccc(Cl)cc4)n3)cc2F)nc2ccc(C(=O)O)cc21 [Example 544, 2-(4-(6-((4-chlorobenzyl)oxy)pyridin-2-yl)-2,5-difluorobenzyl)-1-((3S,4S)-4-(methoxymethyl)tetrahydrofuran-3-yl)-1H-benzo[d]imidazole-6-carboxylic acid]",0.048
7,"N#Cc1ccc(COc2cccc(-c3cc(F)c(Cc4nc5ccc(C(=O)O)cc5n4[C@@H]4COC[C@@H]4OCC(F)F)cc3F)n2)c(F)c1 [Example 540, 2-(4-(6-((4-cyano-2-fluorobenzyl)oxy)pyridin-2-yl)-2,5-difluorobenzyl)-1-((3R,4R)-4-(2,2-difluoroethoxy)tetrahydrofuran-3-yl)-1H-benzo[d]imidazole-6-carboxylic acid]",0.052
8,"CC1(C)COC[C@H]1n1c(Cc2c(F)cc(-c3ccc(F)c(OCc4ccc(C#N)cc4F)n3)cc2F)nc2c(F)cc(C(=O)O)cc21 [Example 307, (S)-2-(4-(6-((4-cyano-2-fluorobenzyl)oxy)-5-fluoropyridin-2-yl)-2,6-difluorobenzyl)-1-(4,4-dimethyltetrahydrofuran-3-yl)-4-fluoro-1H-benzo[d]imidazole-6-carboxylic acid]",0.508
9,"COCCn1c(Cc2cc(F)c(-c3cccc(OCc4ccc(Cl)cc4)n3)cc2F)nc2c(F)cc(C(=O)O)cc21 [Example 386, 2-(4-(6-((4-chlorobenzyl)oxy)pyridin-2-yl)-2,5-difluorobenzyl)-4-fluoro-1-(2-methoxyethyl)-1H-benzo[d]imidazole-6-carboxylic acid]",0.093
10,"Cn1cc(-c2ccc(COc3cccc(-c4cc(F)c(Cc5nc6ccc(C(=O)O)cc6n5[C@@H]5COCC5(C)C)cc4F)n3)c(F)c2)nn1 [Example 442, (S)-2-(2,5-difluoro-4-(6-((2-fluoro-4-(1-methyl-1H-1,2,3-triazol-4-yl)benzyl)oxy)pyridin-2-yl)benzyl)-1-(4,4-dimethyltetrahydrofuran-3-yl)-1H-benzo[d]imidazole-6-carboxylic acid]",0.042
11,"CC1(C)COC[C@H]1n1c(Cc2cc(F)c(-c3cccc(OCc4ccc(Cl)nc4F)n3)cc2F)nc2ccc(C(=O)O)cc21 [Example 249, (S)-2-(4-(6-((6-chloro-2-fluoropyridin-3-yl)methoxy)pyridin-2-yl)-2,5-difluorobenzyl)-1-(4,4-dimethyltetrahydrofuran-3-yl)-1H-benzo[d]imidazole-6-carboxylic acid]",0.137
12,"N#Cc1ccc(COc2cccc(-c3cc(F)c(Cc4nc5ccc(C(=O)O)cc5n4C4COC5CC4C5)cc3F)n2)c(F)c1 (stereo not drawn) [Example 68, 1-(2-oxabicyclo[3.1.1]heptan-4-yl)-2-(4-(6-((4-cyano-2-fluorobenzyl)oxy)pyridin-2-yl)-2,5-difluorobenzyl)-1H-benzo[d]imidazole-6-carboxylic Acid]",0.33
13,COCCn1c(Cc2cc(F)c(-c3cccc(OCc4ccc(C#N)cc4F)n3)cc2F)nc2c(-c3cncnc3)cc(C(=O)O)cc21 [Example 55],25.8
14,"N#Cc1ccc(COc2cccc(-c3cc(F)c(Cc4nc5ccc(C(=O)O)cc5n4[C@@H]4COC[C@@H]4OCC(F)F)cc3F)n2)c(F)c1 (racemic) [Example 412, 2-(4-(6-((4-cyano-2-fluorobenzyl)oxy)pyridin-2-yl)-2,5-difluorobenzyl)-1-((3R,4R)-4-(2,2-difluoroethoxy)tetrahydrofuran-3-yl)-1H-benzo[d]imidazole-6-carboxylic acid]",0.462
15,"CC1(C)COC[C@H]1n1c(Cc2ccc(-c3cccc(OCc4ccc(C#N)cc4)n3)cc2F)nc2c(F)cc(C(=O)O)cc21 [Example 372, (S)-2-(4-(6-((4-cyanobenzyl)oxy)pyridin-2-yl)-2-fluorobenzyl)-1-(4,4-dimethyltetrahydrofuran-3-yl)-4-fluoro-1H-benzo[d]imidazole-6-carboxylic acid]",0.163
16,CC1(C)COC[C@H]1n1c(Cc2c(F)cc(-c3cccc(OCc4ccc(C#N)cc4F)n3)c(F)c2F)nc2c(F)cc(C(=O)O)cc21 [Example 124],0.027
17,"CC1(C)COCC1n1c(Cc2cc(F)c(-c3cccc(OCc4c(F)cc(Cl)cc4F)n3)cc2F)nc2c(F)cc(C(=O)O)cc21 (stereo not drawn) [Example 499, 2-(4-(6-((4-chloro-2,6-difluorobenzyl)oxy)pyridin-2-yl)-2,5-difluorobenzyl)-1-(4,4-dimethyltetrahydrofuran-3-yl)-4-fluoro-1H-benzo[d]imidazole-6-carboxylic acid]",0.508
18,"COCCn1c(Cc2cc(F)c(-c3cccc(OCc4cc(F)c(F)cc4F)n3)cc2F)nc2ccc(C(=O)O)cc21 [Example 27, 2-(2,5-difluoro-4-(6-((2,4,5-trifluorobenzyl)oxy)pyridin-2-yl)benzyl)-1-(2-methoxyethyl)-1H-benzo[d]imidazole-6-carboxylic Acid]",13.1
19,"CC1(C)COCC1n1c(Cc2cc(F)c(-c3cccc(OCc4ncc(Cl)cc4F)n3)cc2F)nc2ccc(C(=O)O)cc21 (stereo not drawn) [Example 296, 2-(4-(6-((5-chloro-3-fluoropyridin-2-yl)methoxy)pyridin-2-yl)-2,5-difluorobenzyl)-1-(4,4-dimethyltetrahydrofuran-3-yl)-1H-benzo[d]imidazole-6-carboxylic acid]",0.066
20,"COC(=O)N1Cc2ccc(COc3nc(-c4cc(F)c(Cc5nc6c(F)cc(C(=O)O)cc6n5C[C@@H]5CCO5)cc4F)ccc3F)cc2C1 [Example 515, (S)-2-(2,5-difluoro-4-(5-fluoro-6-((2-(methoxycarbonyl)isoindolin-5-yl)methoxy)pyridin-2-yl)benzyl)-4-fluoro-1-(oxetan-2-ylmethyl)-1H-benzo[d]imidazole-6-carboxylic acid]",0.074
21,"COC[C@H]1COC[C@H]1n1c(Cc2cc(F)c(-c3ccc(F)c(OCc4ccc(Cl)cc4F)c3)cc2F)nc2ccc(C(=O)O)cc21 [Example 559, 2-((3′-((4-chloro-2-fluorobenzyl)oxy)-2,4′,5-trifluoro-[1,1′-biphenyl]-4-yl)methyl)-1-((3S,4S)-4-(methoxymethyl)tetrahydrofuran-3-yl)-1H-benzo[d]imidazole-6-carboxylic acid]",0.195
22,"CC1(C)COC[C@H]1n1c(Cc2c(F)cc(-c3ccc(F)c(OCc4ccc(Cl)cc4)n3)c(F)c2F)nc2c(F)cc(C(=O)O)cc21 [Example 310, (S)-2-(4-(6-((4-chlorobenzyl)oxy)-5-fluoropyridin-2-yl)-2,3,6-trifluorobenzyl)-1-(4,4-dimethyltetrahydrofuran-3-yl)-4-fluoro-1H-benzo[d]imidazole-6-carboxylic acid]",0.032
23,"CC1(C)COC[C@H]1n1c(Cc2cc(F)c(-c3cccc(OCc4ccc(C#N)cc4F)n3)cc2F)nc2ccc(C(=O)O)nc21 [Example 439, (S)-2-(4-(6-((4-cyano-2-fluorobenzyl)oxy)pyridin-2-yl)-2,5-difluorobenzyl)-3-(4,4-dimethyltetrahydrofuran-3-yl)-3H-imidazo[4,5-b]pyridine-5-carboxylic acid]",0.171
24,"CC1(C)COCC1n1c(Cc2ccc(-c3cccc(OCc4ccc(C#N)cc4F)n3)cc2F)nc2ccc(C(=O)O)cc21 (stereo not drawn) [Example 384, 2-(4-(6-((4-cyano-2-fluorobenzyl)oxy)pyridin-2-yl)-2-fluorobenzyl)-1-(4,4-dimethyltetrahydrofuran-3-yl)-1H-benzo[d]imidazole-6-carboxylic acid]",0.205
25,"CO[C@]1(C)COC[C@H]1n1c(Cc2cc(F)c(-c3cccc(OCc4ccc(C#N)cc4F)n3)cc2F)nc2ccc(C(=O)O)cc21 (single isomer, unassigned) [Example 312]",0.397
26,"COC[C@H]1COC[C@H]1n1c(Cc2cc(F)c(-c3cccc(OCc4ccc(C#N)cc4F)n3)cc2F)nc2ccc(C(=O)O)cc21 (single isomer, unassigned) [Example 176A]",0.085
27,"COC(C)(C)Cn1c(Cc2cc(F)c(-c3cccc(OCc4ccc(Cl)cc4F)n3)cc2F)nc2ccc(C(=O)O)cc21 [Example 510, 2-(4-(6-((4-chloro-2-fluorobenzyl)oxy)pyridin-2-yl)-2,5-difluorobenzyl)-1-(2-methoxy-2-methylpropyl)-1H-benzo[d]imidazole-6-carboxylic acid]",0.509
